# According to ChEMBL document CHEMBL1201862, “PubChem BioAssay data set” (2004):
#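 Grown in 96-well plates, cells were treated for 48 hours with each compound at five concentrations. Insufficient inhibition: endpoint recorded as highest concentration tested. The concentration for 50% growth inhibition is given as GI50.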 The source made the active and inactive calls. Cut-off read from the data, not from the text of the source: active = GI50 up to about 1.1 µM and inactive = higher.
# Legend:
# Experiment in all cases: DTP human tumour cell line panel, 48 h
# NCI/ADR-RES = test system: NCI/ADR-RES
# ACHN = test system: ACHN
# A549 = test system: A549
# HCC 2998 = test system: HCC 2998
# Hs-578T = test system: Hs-578T
# A498 = test system: A498
# MCF7 = test system: MCF7
# OVCAR-4 = test system: OVCAR-4
# SK-MEL-28 = test system: SK-MEL-28
# HL-60 = test system: HL-60
# EKVX = test system: EKVX
# HT-29 = test system: HT-29
# OVCAR-5 = test system: OVCAR-5
# SN12C = test system: SN12C
# OVCAR-3 = test system: OVCAR-3
# COLO 205 = test system: COLO 205
# SK-MEL-5 = test system: SK-MEL-5
# MOLT-4 = test system: MOLT-4
# KM12 = test system: KM12
# HOP-92 = test system: HOP-92
Structure (SMILES),GI50 (NCI/ADR-RES),GI50 (ACHN),GI50 (A549),GI50 (HCC 2998),GI50 (Hs-578T),GI50 (A498),GI50 (MCF7),GI50 (OVCAR-4),GI50 (SK-MEL-28),GI50 (HL-60),GI50 (EKVX),GI50 (HT-29),GI50 (OVCAR-5),GI50 (SN12C),GI50 (OVCAR-3),GI50 (COLO 205),GI50 (SK-MEL-5),GI50 (MOLT-4),GI50 (KM12),GI50 (HOP-92)
O=C1Nc2ccccc2N/C1=C\C(=O)C(F)F,> 100 µM (inactive),> 100 µM (inactive),> 100 µM (inactive),> 100 µM (inactive),> 100 µM (inactive),> 100 µM (inactive),> 100 µM (inactive),> 100 µM (inactive),> 100 µM (inactive),> 100 µM (inactive),14.9 µM (inactive),> 100 µM (inactive),> 100 µM (inactive),> 100 µM (inactive),> 100 µM (inactive),> 100 µM (inactive),> 100 µM (inactive),> 100 µM (inactive),> 100 µM (inactive),–
Cc1ccc(/N=N/c2c(C)c(C#N)c(=S)n(C3OC(CO)C(O)C(O)C3O)c2-c2ccccc2)cc1 (configuration not stated),29 µM (inactive),30.7 µM (inactive),32 µM (inactive),41.1 µM (inactive),24.5 µM (inactive),0.74 µM (active),18.2 µM (inactive),29 µM (inactive),16.5 µM (inactive),36.8 µM (inactive),–,27.7 µM (inactive),28.9 µM (inactive),31.4 µM (inactive),19.5 µM (inactive),25.1 µM (inactive),11.2 µM (inactive),9.73 µM (inactive),19 µM (inactive),–
COCCn1cnc2c(Cl)nc(Nc3ccccc3)nc21,39.2 µM (inactive),17.9 µM (inactive),48.8 µM (inactive),17.3 µM (inactive),24.1 µM (inactive),59.4 µM (inactive),36.4 µM (inactive),22 µM (inactive),36 µM (inactive),22.9 µM (inactive),21.3 µM (inactive),64 µM (inactive),> 100 µM (inactive),26.4 µM (inactive),16.5 µM (inactive),76.2 µM (inactive),38.7 µM (inactive),23.3 µM (inactive),> 100 µM (inactive),–
O=c1c(S(=O)(=O)Oc2ccccc2)coc2cc(F)ccc12,32.4 µM (inactive),> 100 µM (inactive),> 100 µM (inactive),> 100 µM (inactive),26.2 µM (inactive),–,74.8 µM (inactive),> 100 µM (inactive),> 100 µM (inactive),–,> 100 µM (inactive),> 100 µM (inactive),> 100 µM (inactive),> 100 µM (inactive),> 100 µM (inactive),–,> 100 µM (inactive),> 100 µM (inactive),> 100 µM (inactive),–
COc1ccc2c(c1)/C(=C\c1c(C)nc3sc(C)cn13)C(=O)N2,1.36 µM (inactive),3.83 µM (inactive),1.36 µM (inactive),0.337 µM (active),1.22 µM (inactive),0.531 µM (active),0.332 µM (active),12.7 µM (inactive),54.6 µM (inactive),0.292 µM (active),3.24 µM (inactive),0.363 µM (active),3.24 µM (inactive),8.49 µM (inactive),0.297 µM (active),0.14 µM (active),0.206 µM (active),0.778 µM (active),0.327 µM (active),–
CC(=O)Oc1ccc2cc(-c3ccccc3OC(C)=O)c(=O)oc2c1,36.5 µM (inactive),30.7 µM (inactive),32.1 µM (inactive),48.1 µM (inactive),56.5 µM (inactive),40.7 µM (inactive),89.3 µM (inactive),18.3 µM (inactive),38.6 µM (inactive),3.24 µM (inactive),25.2 µM (inactive),> 100 µM (inactive),69 µM (inactive),76 µM (inactive),24.8 µM (inactive),> 100 µM (inactive),–,6.92 µM (inactive),33.5 µM (inactive),–
CCC(=O)N1C(=O)C(CC)(CC)C(=O)N1C(=O)CC,> 100 µM (inactive),> 100 µM (inactive),> 100 µM (inactive),> 100 µM (inactive),> 100 µM (inactive),–,> 100 µM (inactive),> 100 µM (inactive),> 100 µM (inactive),> 100 µM (inactive),> 100 µM (inactive),> 100 µM (inactive),> 100 µM (inactive),> 100 µM (inactive),> 100 µM (inactive),> 100 µM (inactive),> 100 µM (inactive),> 100 µM (inactive),> 100 µM (inactive),–
CCCCSC1=N/C(=C\c2ccco2)C(Cl)=N1,> 100 µM (inactive),> 100 µM (inactive),> 100 µM (inactive),> 100 µM (inactive),> 100 µM (inactive),> 100 µM (inactive),> 100 µM (inactive),> 100 µM (inactive),> 100 µM (inactive),> 100 µM (inactive),> 100 µM (inactive),> 100 µM (inactive),> 100 µM (inactive),> 100 µM (inactive),> 100 µM (inactive),> 100 µM (inactive),> 100 µM (inactive),> 100 µM (inactive),> 100 µM (inactive),–
O=C(O)CCC(NC(=O)c1ccc(Oc2nc3ccccc3nc2C(=O)O)cc1)C(=O)O (configuration not stated),> 100 µM (inactive),> 100 µM (inactive),> 100 µM (inactive),> 100 µM (inactive),> 100 µM (inactive),> 100 µM (inactive),–,> 100 µM (inactive),> 100 µM (inactive),> 100 µM (inactive),> 100 µM (inactive),> 100 µM (inactive),> 100 µM (inactive),–,> 100 µM (inactive),> 100 µM (inactive),> 100 µM (inactive),> 100 µM (inactive),> 100 µM (inactive),> 100 µM (inactive)
COc1ccc(/C=N/Nc2nc(=S)[nH]c3[nH]ncc23)cc1,> 100 µM (inactive),43.3 µM (inactive),54.3 µM (inactive),35 µM (inactive),> 100 µM (inactive),40.9 µM (inactive),43.5 µM (inactive),49 µM (inactive),35.2 µM (inactive),> 100 µM (inactive),59.4 µM (inactive),48.5 µM (inactive),45.5 µM (inactive),> 100 µM (inactive),60.7 µM (inactive),18.3 µM (inactive),30 µM (inactive),> 100 µM (inactive),49.9 µM (inactive),–
NC(=O)c1cccc(OCC(O)CO)c1 (configuration not stated),> 100 µM (inactive),> 100 µM (inactive),> 100 µM (inactive),> 100 µM (inactive),> 100 µM (inactive),> 100 µM (inactive),> 100 µM (inactive),> 100 µM (inactive),> 100 µM (inactive),> 100 µM (inactive),> 100 µM (inactive),> 100 µM (inactive),> 100 µM (inactive),> 100 µM (inactive),> 100 µM (inactive),> 100 µM (inactive),> 100 µM (inactive),> 100 µM (inactive),> 100 µM (inactive),–
